Columns and labels:
[1] = biological target: RAF proto-oncogene serine/threonine-protein kinase (Homo sapiens) (UniProt P04049); conditions: Compound concentration 1000.0 nM
[2] = biological target: Activin receptor type-1 (Homo sapiens) (UniProt Q04771); conditions: Compound concentration 1000.0 nM
[3] = biological target: Uncharacterized serine/threonine-protein kinase SBK3 (Homo sapiens) (UniProt P0C264); conditions: Compound concentration 1000.0 nM
[4] = biological target: Proto-oncogene tyrosine-protein kinase ROS (Homo sapiens) (UniProt P08922); conditions: Compound concentration 1000.0 nM
[5] = biological target: Mitogen-activated protein kinase kinase kinase 7 (Homo sapiens) (UniProt O43318); conditions: Compound concentration 1000.0 nM
[6] = biological target: Receptor tyrosine-protein kinase erbB-3 (Homo sapiens) (UniProt P21860); conditions: Compound concentration 1000.0 nM
[7] = biological target: T1, Muscarinic acetylcholine receptor M2 (Homo sapiens) (UniProt P08172); conditions: Compound concentration 10.0 uM
T1 sequence (whole entry): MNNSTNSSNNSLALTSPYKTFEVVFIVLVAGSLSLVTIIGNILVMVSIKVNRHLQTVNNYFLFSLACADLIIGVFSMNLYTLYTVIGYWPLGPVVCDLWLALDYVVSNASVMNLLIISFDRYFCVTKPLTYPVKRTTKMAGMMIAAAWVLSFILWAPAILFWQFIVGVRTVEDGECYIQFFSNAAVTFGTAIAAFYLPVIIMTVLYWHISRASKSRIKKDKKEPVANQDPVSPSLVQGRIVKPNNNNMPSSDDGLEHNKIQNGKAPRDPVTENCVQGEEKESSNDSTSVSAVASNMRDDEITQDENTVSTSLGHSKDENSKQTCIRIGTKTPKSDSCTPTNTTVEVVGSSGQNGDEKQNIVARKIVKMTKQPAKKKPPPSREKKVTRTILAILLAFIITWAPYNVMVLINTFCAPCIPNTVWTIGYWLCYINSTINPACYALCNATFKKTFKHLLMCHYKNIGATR

[8] = biological target: Testis-specific serine/threonine-protein kinase 3 (Homo sapiens) (UniProt Q96PN8); conditions: Compound concentration 1000.0 nM
[9] = biological target: Serine/threonine-protein kinase PLK2 (Homo sapiens) (UniProt Q9NYY3); conditions: Compound concentration 1000.0 nM
[10] = tested on: Epidermal growth factor receptor (Homo sapiens), P00533 [G719S]; conditions: Compound concentration 1000.0 nM
[11] = biological target: Cyclin-dependent kinase 9 (Homo sapiens) (UniProt P50750); conditions: Compound concentration 1000.0 nM
[12] = biological target: Serine/threonine-protein kinase WNK3 (Homo sapiens) (UniProt Q9BYP7); conditions: Compound concentration 1000.0 nM
[13] = biological target: Serine/threonine-protein kinase Sgk3 (Homo sapiens) (UniProt Q96BR1); conditions: Compound concentration 1000.0 nM
[14] = biological target: Activin receptor type-1-like (Homo sapiens) (UniProt P37023); conditions: Compound concentration 1000.0 nM
[15] = biological target: Alpha-1B adrenergic receptor (Homo sapiens) (UniProt P35368); conditions: Compound concentration 10.0 uM
[16] = tested on: Proto-oncogene tyrosine-protein kinase receptor Ret (Homo sapiens), P07949 [V804L]; conditions: Compound concentration 1000.0 nM
[17] = biological target: Mitogen-activated protein kinase kinase kinase 5 (Homo sapiens) (UniProt Q99683); conditions: Compound concentration 1000.0 nM
[18] = biological target: TGF-beta receptor type-1 (Homo sapiens) (UniProt P36897); conditions: Compound concentration 1000.0 nM
[19] = biological target: Serine/threonine-protein kinase haspin (Homo sapiens) (UniProt Q8TF76); conditions: Compound concentration 1000.0 nM
[20] = biological target: Mitogen-activated protein kinase kinase kinase 15 (Homo sapiens) (UniProt Q6ZN16); conditions: Compound concentration 1000.0 nM
[21] = biological target: Ribosomal protein S6 kinase alpha-2 (Homo sapiens) (UniProt Q15349); conditions: Compound concentration 1000.0 nM
[22] = biological target: Rho-associated protein kinase 1 (Homo sapiens) (UniProt Q13464); conditions: Compound concentration 1000.0 nM
[23] = biological target: Mitogen-activated protein kinase 4 (Homo sapiens) (UniProt P31152); conditions: Compound concentration 1000.0 nM
[24] = biological target: Mitogen-activated protein kinase kinase kinase 20 (Homo sapiens) (UniProt Q9NYL2); conditions: Compound concentration 1000.0 nM
[25] = biological target: Cyclin-dependent kinase 5 (Homo sapiens) (UniProt Q00535); conditions: Compound concentration 1000.0 nM
[26] = biological target: Tyrosine-protein kinase ZAP-70 (Homo sapiens) (UniProt P43403); conditions: Compound concentration 1000.0 nM
[27] = biological target: Tyrosine-protein kinase ABL1 (Homo sapiens) (UniProt P00519); conditions: Compound concentration 1000.0 nM
[28] = biological target: Interleukin-1 receptor-associated kinase 3 (Homo sapiens) (UniProt Q9Y616); conditions: Compound concentration 1000.0 nM
[29] = biological target: Aurora kinase A (Homo sapiens) (UniProt O14965); conditions: Compound concentration 1000.0 nM
[30] = biological target: Serine/threonine-protein kinase RIO1 (Homo sapiens) (UniProt Q9BRS2); conditions: Compound concentration 1000.0 nM
[31] = biological target: Phosphatidylinositol 4-phosphate 5-kinase type-1 alpha (Homo sapiens) (UniProt Q99755); conditions: Compound concentration 1000.0 nM
[32] = biological target: SRSF protein kinase 2 (Homo sapiens) (UniProt P78362); conditions: Compound concentration 1000.0 nM
[33] = biological target: Serine/threonine-protein kinase MRCK alpha (Homo sapiens) (UniProt Q5VT25); conditions: Compound concentration 1000.0 nM
[34] = biological target: MAP/microtubule affinity-regulating kinase 3 (Homo sapiens) (UniProt P27448); conditions: Compound concentration 1000.0 nM
[35] = biological target: Homeodomain-interacting protein kinase 4 (Homo sapiens) (UniProt Q8NE63); conditions: Compound concentration 1000.0 nM
[36] = biological target: Cyclin-dependent kinase 15 (Homo sapiens) (UniProt Q96Q40); conditions: Compound concentration 1000.0 nM
[37] = biological target: D(1B) dopamine receptor (Homo sapiens) (UniProt P21918); conditions: Compound concentration 10.0 uM
[38] = biological target: MAP kinase-interacting serine/threonine-protein kinase 2 (Homo sapiens) (UniProt Q9HBH9); conditions: Compound concentration 1000.0 nM
[39] = biological target: Dual specificity testis-specific protein kinase 1 (Homo sapiens) (UniProt Q15569); conditions: Compound concentration 1000.0 nM

Interleukin-1 receptor-associated kinase 3 (Homo sapiens), sequence (Q9Y616 whole entry): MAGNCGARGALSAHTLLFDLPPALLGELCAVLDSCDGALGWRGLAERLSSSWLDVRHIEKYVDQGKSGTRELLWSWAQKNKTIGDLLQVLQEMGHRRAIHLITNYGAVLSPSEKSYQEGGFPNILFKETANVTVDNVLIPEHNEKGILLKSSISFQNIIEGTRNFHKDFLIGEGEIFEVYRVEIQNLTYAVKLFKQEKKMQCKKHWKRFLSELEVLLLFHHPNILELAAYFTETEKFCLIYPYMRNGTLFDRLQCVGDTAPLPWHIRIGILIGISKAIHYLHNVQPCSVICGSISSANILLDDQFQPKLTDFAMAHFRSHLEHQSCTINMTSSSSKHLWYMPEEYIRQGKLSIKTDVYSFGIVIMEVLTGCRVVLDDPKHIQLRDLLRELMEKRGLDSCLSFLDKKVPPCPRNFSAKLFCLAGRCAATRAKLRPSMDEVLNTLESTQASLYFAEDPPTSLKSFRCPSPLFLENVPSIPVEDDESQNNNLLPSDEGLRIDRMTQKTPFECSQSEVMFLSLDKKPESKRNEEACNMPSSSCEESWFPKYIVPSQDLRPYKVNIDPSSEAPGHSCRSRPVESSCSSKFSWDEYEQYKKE
Activin receptor type-1-like (Homo sapiens), sequence (P37023 whole entry): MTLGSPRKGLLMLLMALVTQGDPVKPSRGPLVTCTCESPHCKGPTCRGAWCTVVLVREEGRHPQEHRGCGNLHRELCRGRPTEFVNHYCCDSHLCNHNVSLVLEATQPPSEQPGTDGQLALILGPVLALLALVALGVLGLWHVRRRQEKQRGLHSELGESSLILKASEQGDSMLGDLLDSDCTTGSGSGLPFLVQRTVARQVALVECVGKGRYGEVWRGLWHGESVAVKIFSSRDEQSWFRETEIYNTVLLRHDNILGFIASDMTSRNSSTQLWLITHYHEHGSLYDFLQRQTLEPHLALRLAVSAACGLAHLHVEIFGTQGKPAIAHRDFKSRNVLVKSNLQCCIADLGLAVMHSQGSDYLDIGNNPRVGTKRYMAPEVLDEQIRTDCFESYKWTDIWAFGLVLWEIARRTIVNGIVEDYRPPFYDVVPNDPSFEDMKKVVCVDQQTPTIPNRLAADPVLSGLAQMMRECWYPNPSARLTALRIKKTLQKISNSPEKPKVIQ
Cyclin-dependent kinase 15 (Homo sapiens), sequence (Q96Q40 whole entry): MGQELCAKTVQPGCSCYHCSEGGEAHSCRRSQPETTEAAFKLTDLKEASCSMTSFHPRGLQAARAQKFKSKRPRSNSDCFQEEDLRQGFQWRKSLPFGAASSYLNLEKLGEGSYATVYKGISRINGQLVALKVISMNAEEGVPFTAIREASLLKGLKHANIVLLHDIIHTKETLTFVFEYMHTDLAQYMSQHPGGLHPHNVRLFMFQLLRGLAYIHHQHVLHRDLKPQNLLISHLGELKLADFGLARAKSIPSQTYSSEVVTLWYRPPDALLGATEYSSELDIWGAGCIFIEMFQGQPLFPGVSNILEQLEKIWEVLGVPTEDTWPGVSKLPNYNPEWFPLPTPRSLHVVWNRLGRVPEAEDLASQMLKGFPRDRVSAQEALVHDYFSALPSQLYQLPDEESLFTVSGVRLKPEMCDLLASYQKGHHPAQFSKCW
Tyrosine-protein kinase ZAP-70 (Homo sapiens), sequence (P43403 whole entry): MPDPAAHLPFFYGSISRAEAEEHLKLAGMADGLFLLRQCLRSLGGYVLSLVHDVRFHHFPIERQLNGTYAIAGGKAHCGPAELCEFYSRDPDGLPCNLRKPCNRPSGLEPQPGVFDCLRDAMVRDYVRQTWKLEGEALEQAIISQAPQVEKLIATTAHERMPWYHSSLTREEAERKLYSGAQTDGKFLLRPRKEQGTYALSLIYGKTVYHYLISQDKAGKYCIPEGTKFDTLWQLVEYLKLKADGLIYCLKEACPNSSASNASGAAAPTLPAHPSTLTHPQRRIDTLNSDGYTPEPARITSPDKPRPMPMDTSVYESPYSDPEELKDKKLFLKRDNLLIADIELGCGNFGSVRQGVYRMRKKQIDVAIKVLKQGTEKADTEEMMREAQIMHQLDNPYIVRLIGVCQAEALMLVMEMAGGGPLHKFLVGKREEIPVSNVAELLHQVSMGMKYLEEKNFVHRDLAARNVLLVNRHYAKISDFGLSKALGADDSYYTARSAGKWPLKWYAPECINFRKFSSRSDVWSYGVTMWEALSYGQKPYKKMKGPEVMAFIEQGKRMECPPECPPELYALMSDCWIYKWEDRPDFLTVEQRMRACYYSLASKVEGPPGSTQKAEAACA
Mitogen-activated protein kinase kinase kinase 7 (Homo sapiens), sequence (O43318 whole entry): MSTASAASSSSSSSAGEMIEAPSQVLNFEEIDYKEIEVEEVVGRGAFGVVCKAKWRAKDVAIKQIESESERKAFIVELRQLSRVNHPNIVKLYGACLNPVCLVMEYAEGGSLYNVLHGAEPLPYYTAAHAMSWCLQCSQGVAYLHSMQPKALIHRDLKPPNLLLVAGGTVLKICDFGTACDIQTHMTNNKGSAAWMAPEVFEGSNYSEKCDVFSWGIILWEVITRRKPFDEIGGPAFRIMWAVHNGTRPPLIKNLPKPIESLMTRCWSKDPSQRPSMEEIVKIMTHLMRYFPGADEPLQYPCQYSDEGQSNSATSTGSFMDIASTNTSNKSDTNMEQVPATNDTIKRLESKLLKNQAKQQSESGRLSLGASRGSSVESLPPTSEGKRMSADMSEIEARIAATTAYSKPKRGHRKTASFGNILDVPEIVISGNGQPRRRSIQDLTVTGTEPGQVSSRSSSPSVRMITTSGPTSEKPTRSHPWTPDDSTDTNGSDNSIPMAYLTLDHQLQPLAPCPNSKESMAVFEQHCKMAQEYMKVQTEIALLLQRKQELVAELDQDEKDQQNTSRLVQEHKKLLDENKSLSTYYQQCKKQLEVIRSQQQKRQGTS
Mitogen-activated protein kinase kinase kinase 20 (Homo sapiens), sequence (Q9NYL2 2-800 limits assumed): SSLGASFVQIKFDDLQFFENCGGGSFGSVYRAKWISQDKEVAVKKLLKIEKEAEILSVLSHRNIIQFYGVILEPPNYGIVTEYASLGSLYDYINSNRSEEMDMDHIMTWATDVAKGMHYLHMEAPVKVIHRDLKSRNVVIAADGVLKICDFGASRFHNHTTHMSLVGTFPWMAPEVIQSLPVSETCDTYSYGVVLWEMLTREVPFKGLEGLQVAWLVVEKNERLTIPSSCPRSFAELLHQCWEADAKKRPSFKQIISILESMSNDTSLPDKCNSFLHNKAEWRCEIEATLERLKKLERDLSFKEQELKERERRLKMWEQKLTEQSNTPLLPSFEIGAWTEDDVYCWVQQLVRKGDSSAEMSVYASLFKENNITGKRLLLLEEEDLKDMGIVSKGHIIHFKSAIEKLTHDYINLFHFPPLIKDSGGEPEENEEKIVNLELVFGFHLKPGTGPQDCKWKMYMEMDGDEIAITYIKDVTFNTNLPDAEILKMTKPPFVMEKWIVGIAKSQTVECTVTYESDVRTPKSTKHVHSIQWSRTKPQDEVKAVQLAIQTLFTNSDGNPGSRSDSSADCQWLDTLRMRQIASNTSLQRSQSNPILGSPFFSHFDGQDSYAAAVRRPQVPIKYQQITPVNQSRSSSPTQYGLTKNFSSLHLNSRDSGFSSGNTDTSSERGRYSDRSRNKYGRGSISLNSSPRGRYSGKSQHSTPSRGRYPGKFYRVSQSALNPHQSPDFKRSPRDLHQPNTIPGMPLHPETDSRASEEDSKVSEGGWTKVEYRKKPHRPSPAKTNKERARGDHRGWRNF
Alpha-1B adrenergic receptor (Homo sapiens), sequence (P35368 whole entry): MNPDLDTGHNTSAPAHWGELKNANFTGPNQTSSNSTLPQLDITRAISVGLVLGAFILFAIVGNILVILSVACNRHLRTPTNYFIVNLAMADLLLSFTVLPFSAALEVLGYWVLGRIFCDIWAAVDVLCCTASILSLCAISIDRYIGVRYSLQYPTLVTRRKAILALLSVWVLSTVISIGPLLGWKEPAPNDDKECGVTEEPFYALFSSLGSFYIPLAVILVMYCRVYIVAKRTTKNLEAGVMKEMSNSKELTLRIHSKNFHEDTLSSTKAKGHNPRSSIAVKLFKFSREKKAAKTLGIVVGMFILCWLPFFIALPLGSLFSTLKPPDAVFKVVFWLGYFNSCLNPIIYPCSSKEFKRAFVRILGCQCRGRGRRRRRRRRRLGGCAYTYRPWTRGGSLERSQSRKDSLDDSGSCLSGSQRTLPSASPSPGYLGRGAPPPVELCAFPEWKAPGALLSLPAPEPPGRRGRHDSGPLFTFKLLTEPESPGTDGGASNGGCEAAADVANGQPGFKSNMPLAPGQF
Phosphatidylinositol 4-phosphate 5-kinase type-1 alpha (Homo sapiens), sequence (Q99755 whole entry): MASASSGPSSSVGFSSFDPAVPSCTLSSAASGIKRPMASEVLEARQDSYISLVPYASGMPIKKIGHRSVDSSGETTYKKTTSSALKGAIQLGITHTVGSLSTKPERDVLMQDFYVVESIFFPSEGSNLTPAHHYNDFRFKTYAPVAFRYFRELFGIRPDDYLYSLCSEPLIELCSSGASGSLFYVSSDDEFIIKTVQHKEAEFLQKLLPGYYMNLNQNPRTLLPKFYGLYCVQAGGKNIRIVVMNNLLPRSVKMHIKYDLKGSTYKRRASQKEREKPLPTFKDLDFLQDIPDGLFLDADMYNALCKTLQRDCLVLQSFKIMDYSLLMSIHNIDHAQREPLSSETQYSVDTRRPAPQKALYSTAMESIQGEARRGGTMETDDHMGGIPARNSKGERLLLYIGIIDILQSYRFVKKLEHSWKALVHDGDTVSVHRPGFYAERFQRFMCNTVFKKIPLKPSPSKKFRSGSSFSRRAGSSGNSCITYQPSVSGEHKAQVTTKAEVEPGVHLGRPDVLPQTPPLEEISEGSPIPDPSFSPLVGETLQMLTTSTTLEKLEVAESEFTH
Uncharacterized serine/threonine-protein kinase SBK3 (Homo sapiens), sequence (P0C264 whole entry): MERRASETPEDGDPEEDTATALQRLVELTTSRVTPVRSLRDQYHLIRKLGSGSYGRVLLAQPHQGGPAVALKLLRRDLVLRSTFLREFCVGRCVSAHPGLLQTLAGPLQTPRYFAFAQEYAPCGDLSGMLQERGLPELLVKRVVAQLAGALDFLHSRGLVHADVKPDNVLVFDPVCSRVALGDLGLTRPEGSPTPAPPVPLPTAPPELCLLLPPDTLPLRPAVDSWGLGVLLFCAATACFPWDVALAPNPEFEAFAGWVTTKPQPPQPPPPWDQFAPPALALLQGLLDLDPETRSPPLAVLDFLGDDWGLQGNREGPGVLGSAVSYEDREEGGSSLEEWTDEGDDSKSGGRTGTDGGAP

O=C(Nc1cccnn1)N1CC(C/C=C/c2cncc(Oc3ccc(C(F)(F)F)cn3)n2)C1
inactive: residual activity [1] 100% | residual activity [2] 92% | residual activity [3] 100% | residual activity [4] 100% | residual activity [5] 93% | residual activity [6] 99% | inhibition [7] 20.7% | residual activity [8] 98% | residual activity [9] 60% | residual activity [10] 100% | residual activity [11] 100% | residual activity [12] 84% | residual activity [13] 87% | residual activity [14] 100% | inhibition [15] 0.27% | residual activity [16] 93% | residual activity [17] 98% | residual activity [18] 100% | residual activity [19] 79% | residual activity [20] 81% | residual activity [21] 100% | residual activity [22] 82% | residual activity [23] 100% | residual activity [24] 100% | residual activity [25] 100% | residual activity [26] 90% | residual activity [27] 82% | residual activity [28] 100% | residual activity [29] 100% | residual activity [30] 100% | residual activity [31] 100% | residual activity [32] 100% | residual activity [33] 100% | residual activity [34] 100% | residual activity [35] 92% | residual activity [36] 100% | inhibition [37] 4.5% | residual activity [38] 77% | residual activity [39] 100%

O=C(Nc1cccnn1)N1CCC(=Cc2cccc(Oc3ccc(C(F)(F)F)cn3)c2)CC1
inactive: residual activity [1] 63% | residual activity [2] 92% | residual activity [3] 100% | residual activity [4] 80% | residual activity [5] 100% | residual activity [6] 84% | inhibition [7] 20.8% | residual activity [8] 100% | residual activity [9] 100% | residual activity [10] 99% | residual activity [11] 93% | residual activity [12] 100% | residual activity [13] 93% | residual activity [14] 77% | inhibition [15] 0.4% | residual activity [16] 86% | residual activity [17] 100% | residual activity [18] 61% | residual activity [19] 100% | residual activity [20] 100% | residual activity [21] 80% | residual activity [22] 100% | residual activity [23] 95% | residual activity [24] 95% | residual activity [25] 92% | residual activity [26] 100% | residual activity [27] 93% | residual activity [28] 86% | residual activity [29] 100% | residual activity [30] 100% | residual activity [31] 100% | residual activity [32] 100% | residual activity [33] 95% | residual activity [34] 89% | residual activity [35] 100% | residual activity [36] 100% | inhibition [37] 29.3% | residual activity [38] 100% | residual activity [39] 91%
